Key:
[1] = biological target: T1, purified recombinant human TG2 (tissue transglutaminase) (Homo sapiens, UniProt P21980); assay: TG2 transamidation activity, biotin X-cadaverine incorporation into N,N′-dimethylcasein (Example 2); format: biochemical; details: recombinant human TG2 400 ng/ml, 2 h at 37° C.
T1 construct: purchased Zedira, Germany
T1 sequence (P21980 1-687): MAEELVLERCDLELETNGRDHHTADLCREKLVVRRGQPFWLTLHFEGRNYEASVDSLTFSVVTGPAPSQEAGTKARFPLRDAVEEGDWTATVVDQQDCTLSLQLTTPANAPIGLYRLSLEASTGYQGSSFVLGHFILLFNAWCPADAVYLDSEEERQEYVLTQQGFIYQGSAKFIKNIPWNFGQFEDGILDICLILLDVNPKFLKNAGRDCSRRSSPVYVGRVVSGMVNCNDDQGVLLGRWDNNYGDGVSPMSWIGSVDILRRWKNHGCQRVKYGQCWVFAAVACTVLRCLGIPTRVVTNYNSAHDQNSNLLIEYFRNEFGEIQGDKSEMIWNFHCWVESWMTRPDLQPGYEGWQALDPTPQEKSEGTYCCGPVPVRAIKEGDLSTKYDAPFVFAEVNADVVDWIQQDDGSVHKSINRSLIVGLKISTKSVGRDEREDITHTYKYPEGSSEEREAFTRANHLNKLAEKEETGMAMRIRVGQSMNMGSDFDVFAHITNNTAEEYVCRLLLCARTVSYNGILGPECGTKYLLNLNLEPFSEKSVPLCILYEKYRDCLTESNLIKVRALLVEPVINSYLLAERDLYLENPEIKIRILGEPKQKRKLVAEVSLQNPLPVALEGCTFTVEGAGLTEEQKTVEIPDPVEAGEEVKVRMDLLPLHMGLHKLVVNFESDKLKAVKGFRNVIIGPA
Experimental: TG transamidation activity and the affect of inhibitors on activity was measured by biotin X-cadaverine incorporation into N,N′-dimethylcasein. After coating 96 well plates with 100 μl of 10 mg/ml N,N′-dimethylcasein in 50 mM Tris-Cl, pH8 at 4° C. over night, plates were washed with TBS-0.05% Tween-20(v/v), pH 7.6 and TBS, pH 7.6, and 100 μl purified recombinant human TG2 (400 ng/ml Zedira, Germany) (tissue transglutaminase) in 50 mM Tris-HCl, pH7.4, containing 1 mM DTT, 10 mM CaCl2 and 0.1 μM biotin-cadaverine added into the coated wells containing the appropriate concentration of inhibitor. The reaction was allowed to proceed for 2 h at 37° C. The plate was then washed twice with TBS-Tween-20 (v/v), pH 7.6 and once with TBS, pH 7.6 before being blocked with 100 μl of blocking buffer (3% (w/v) BSA in TBS-Tween, pH 7.6) for 30 min at 37° C. After blocking, the wells were incubated with 100 μl HRP-conjugated Extr-Avidin peroxidase (Sigma-Aldrich, UK) in blocking buffer (1:1,000 dilution) for 1 h at 37° C. After another set of washes, TG2 activity was measured using Sigma Fast OPD, tablets dissolved in 20 ml of distilled H2O. The colour was developed by adding 2.5 M H2SO4 and the absorbance at 490 nm measured using a microplate reader ELx808™. All inhibitors were dissolved in DMSO as a 100 mM solution prior to addition to the assay.

Factor X111a = biological target: T2, Factor X111a (Homo sapiens, UniProt P00488); assay: TG-CovTest commercial microassay, Factor X111a; format: biochemical; details: read-out: Estimated IC50 FXIII
T2 sequence (P00488 39-732 limits assumed): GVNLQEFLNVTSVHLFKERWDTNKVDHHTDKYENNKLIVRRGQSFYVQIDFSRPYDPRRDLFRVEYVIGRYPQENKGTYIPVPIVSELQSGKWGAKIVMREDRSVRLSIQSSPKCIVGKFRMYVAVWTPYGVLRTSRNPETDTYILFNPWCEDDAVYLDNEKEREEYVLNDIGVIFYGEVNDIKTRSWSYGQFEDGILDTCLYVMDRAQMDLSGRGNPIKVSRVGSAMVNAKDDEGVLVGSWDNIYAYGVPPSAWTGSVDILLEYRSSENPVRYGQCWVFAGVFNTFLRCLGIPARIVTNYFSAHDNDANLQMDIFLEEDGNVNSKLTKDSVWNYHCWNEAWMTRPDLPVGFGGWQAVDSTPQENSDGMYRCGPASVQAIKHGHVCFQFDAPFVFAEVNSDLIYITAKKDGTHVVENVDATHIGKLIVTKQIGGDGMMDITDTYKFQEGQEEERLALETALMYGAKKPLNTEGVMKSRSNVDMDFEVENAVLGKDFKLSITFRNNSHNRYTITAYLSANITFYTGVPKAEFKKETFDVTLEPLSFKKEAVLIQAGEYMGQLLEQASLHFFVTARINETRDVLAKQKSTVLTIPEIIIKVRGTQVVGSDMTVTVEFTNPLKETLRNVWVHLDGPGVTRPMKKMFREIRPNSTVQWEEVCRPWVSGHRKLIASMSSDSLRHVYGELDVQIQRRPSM
Text: (§1) For determination of the activity of transglutaminase 1,transglutaminase 3 and Factor X111a, a commercial microassay was used, TG-CovTest (Covalab, Lyon, France; see also Perez et al. Anal Biochem. 2009; 389:150-156).

transglutaminase 1 = biological target: T3, transglutaminase 1 (Homo sapiens, UniProt P22735); assay: TG-CovTest commercial microassay, transglutaminase 1; format: biochemical; details: read-out: Estimated IC50 TG1
T3 sequence (P22735 1-817): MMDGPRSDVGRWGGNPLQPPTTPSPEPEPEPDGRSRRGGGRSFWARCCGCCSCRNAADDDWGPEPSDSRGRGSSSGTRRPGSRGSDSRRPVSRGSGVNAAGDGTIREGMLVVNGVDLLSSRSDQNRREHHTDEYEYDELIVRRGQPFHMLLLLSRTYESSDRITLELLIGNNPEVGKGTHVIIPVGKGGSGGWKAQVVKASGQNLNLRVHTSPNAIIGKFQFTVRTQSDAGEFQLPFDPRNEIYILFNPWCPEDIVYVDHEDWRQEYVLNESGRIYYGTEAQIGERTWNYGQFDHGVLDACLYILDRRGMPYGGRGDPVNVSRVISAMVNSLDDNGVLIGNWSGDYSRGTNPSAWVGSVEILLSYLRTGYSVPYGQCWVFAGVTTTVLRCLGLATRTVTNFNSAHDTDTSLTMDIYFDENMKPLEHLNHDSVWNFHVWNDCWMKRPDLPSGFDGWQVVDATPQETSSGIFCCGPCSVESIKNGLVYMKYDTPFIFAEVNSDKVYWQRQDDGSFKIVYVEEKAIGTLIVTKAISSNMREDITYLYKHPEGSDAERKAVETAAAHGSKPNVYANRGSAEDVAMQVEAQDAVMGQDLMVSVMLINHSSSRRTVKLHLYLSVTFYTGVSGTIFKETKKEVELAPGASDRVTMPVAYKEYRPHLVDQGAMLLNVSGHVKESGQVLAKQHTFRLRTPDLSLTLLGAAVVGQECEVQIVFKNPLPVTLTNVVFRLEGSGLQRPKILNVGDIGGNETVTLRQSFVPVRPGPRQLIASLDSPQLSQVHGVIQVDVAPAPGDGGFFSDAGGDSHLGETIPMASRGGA
Text: as §1

transglutaminase 3 = biological target: T4, transglutaminase 3 (Homo sapiens, UniProt Q08188); assay: TG-CovTest commercial microassay, transglutaminase 3; format: biochemical; details: read-out: Estimated IC50 TG3
T4 sequence (Q08188 1-693): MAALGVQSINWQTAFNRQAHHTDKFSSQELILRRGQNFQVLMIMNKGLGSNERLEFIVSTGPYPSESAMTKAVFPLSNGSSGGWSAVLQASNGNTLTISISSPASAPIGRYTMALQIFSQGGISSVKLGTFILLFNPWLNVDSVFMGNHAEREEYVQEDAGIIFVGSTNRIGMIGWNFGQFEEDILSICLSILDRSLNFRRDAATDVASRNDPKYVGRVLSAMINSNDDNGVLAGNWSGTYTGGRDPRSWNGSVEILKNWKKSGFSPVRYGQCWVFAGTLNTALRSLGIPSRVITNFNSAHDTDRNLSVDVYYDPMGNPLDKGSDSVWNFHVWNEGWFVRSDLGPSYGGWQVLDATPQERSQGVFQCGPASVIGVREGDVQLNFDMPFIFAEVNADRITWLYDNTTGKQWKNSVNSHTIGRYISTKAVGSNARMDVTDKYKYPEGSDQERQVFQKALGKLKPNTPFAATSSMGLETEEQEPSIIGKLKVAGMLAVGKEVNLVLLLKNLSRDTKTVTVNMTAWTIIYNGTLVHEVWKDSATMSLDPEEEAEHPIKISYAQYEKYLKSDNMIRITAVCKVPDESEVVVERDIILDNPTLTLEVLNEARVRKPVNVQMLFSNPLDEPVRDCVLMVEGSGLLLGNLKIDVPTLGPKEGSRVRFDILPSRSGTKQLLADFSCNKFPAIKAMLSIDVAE
Text: as §1

Compound | IC50 [1] | IC50 (Factor X111a) | also measured
COC(=O)c1ccc2cc(COC(=O)N3CCN(C(=O)CNC(=O)C[S+](C)C)CC3)ccc2c1.[Br-] |  |  | melting point: 125 to 126 °C
CN(C)c1cccc2c(S(=O)(=O)N3CCN(C(=O)CNC(=O)C[S+](C)C)CC3)cccc12.[Br-] |  |  | melting point: 98 to 99 °C
C=CS(=O)(=O)NCC(=O)N1CCN(C(=O)OCc2ccccc2)CC1 [Compound 8a, benzyl 4-[2-(vinylsulfonylamino)acetyl]piperazine-1-carboxylate] |  |  | melting point: 66 to 67 °C
C=CS(=O)(=O)NCC(=O)N1CCN(C(=O)C23CC4CC(CC(C4)C2)C3)CC1 [Compound 8e, N-[2-[4-(adamantane-1-carbonyl)piperazin-1-yl]-2-oxo-ethyl]ethenesulfonamide] |  |  | melting point: 159 to 160 °C
O=C(CBr)NCC(=O)N1CCN(C(=O)OCc2ccccc2)CC1 [EB 1-32] | 0.75 ± 0.07 µM |  | 
C[S+](C)CC(=O)NCC(=O)N1CCN(C(=O)OCc2ccccc2)CC1 [EB 1-33] |  | > 100 µM | 
CC(C)(C)OC(=O)N1CCN(C(=O)CNC(=O)CBr)CC1 [EB 1-37] | 0.008 ± 0.003 µM |  | 
CC(=O)NCC(=O)N1CCN(C(=O)OCc2ccccc2)CC1 [EB 1-44] | 4.25 ± 0.78 µM |  | 
Cc1c(C)[n+](C)c(SCC(=O)NCC(=O)N2CCN(C(=O)OC(C)(C)C)CC2)n1C [EB 1-45] | 400 µM |  | 
C[S+](C)CC(=O)NCC(=O)N1CCN(C(=O)OC(C)(C)C)CC1 [EB 1-46] | 0.07 ± 0.007 µM | > 100 µM | 
C=CC(=O)NCC(=O)N1CCN(C(=O)OCc2ccc3ccccc3c2)CC1 [EB 1-81] |  | > 100 µM | 
C[S+](C)CC(=O)NCC(=O)N1CCN(C(=O)OCc2ccc3ccccc3c2)CC1 [EB 1-91] |  | > 100 µM | 
C[C@@H](NC(=O)CBr)C(=O)N1CCN(C(=O)OCc2ccccc2)CC1 [EB 1-100] | 0.066 ± 0.001 µM |  | 
C[C@H](NC(=O)CBr)C(=O)N1CCN(C(=O)OCc2ccccc2)CC1 [EB 1-101] | 0.048 ± 0.006 µM |  | 
C=CC(=O)NCC(=O)N1CCN(C(=O)OCc2ccc3cc(C(=O)OC)ccc3c2)CC1 [EB 1-136] |  | > 100 µM | 
COC(=O)c1ccc2cc(COC(=O)N3CCN(C(=O)CNC(=O)CBr)CC3)ccc2c1 [EB 1-137] |  | < 100 µM | 
C=CC(=O)NCC(=O)N1CCN(S(=O)(=O)c2cccc3c(N(C)C)cccc23)CC1 [EB 1-155] | 0.0061 ± 0.00042 µM | > 100 µM | IC50 (transglutaminase 1): 5 µM; IC50 (transglutaminase 3): > 100 µM
CC[S+](CC)CC(=O)NCC(=O)N1CCN(S(=O)(=O)c2cccc3c(N(C)C)cccc23)CC1 [EB 1-159] |  | > 100 µM | IC50 (transglutaminase 1): > 100 µM; IC50 (transglutaminase 3): > 100 µM
O=C(CBr)NCC(=O)N1CCN(C(=O)OCC23CC4CC(CC(C4)C2)C3)CC1 [EB 1-176] | < 1 µM | > 100 µM | IC50 (transglutaminase 1): 2 µM; IC50 (transglutaminase 3): 25 µM
O=C(CBr)NCC(=O)N1CCN(C(=O)OCCC23CC4CC(CC(C4)C2)C3)CC1 [EB 1-177] | 0.0063 ± 0.00049 µM | > 100 µM | 
C[S+](C)CC(=O)NCC(=O)N1CCN(C(=O)OCC23CC4CC(CC(C4)C2)C3)CC1 [EB 1-178] |  | > 100 µM | 
C=CC(=O)NCC(=O)N1CCN(C(=O)OCCC23CC4CC(CC(C4)C2)C3)CC1 [EB 1-181] |  | > 100 µM | 
C=CC(=O)NCC(=O)N1CCN(C(=O)C23CC4CC(CC(C4)C2)C3)CC1 [EB 2-16] |  | 30 µM | IC50 (transglutaminase 1): 2 µM
O=C(CBr)NCC(=O)N1CCN(C(=O)C23CC4CC(CC(C4)C2)C3)CC1 [EB 2-17] |  | < 100 µM | 
C[S+](C)CC(=O)NCC(=O)N1CCN(C(=O)C23CC4CC(CC(C4)C2)C3)CC1 [EB 2-18] |  | > 100 µM | 
CN(C)c1cccc2c(S(=O)(=O)N3CCN(C(=O)CNC(=O)CCl)CC3)cccc12 [EB 2-57] | 0.0059 ± 0.00014 µM |  | 
